Test results as given in patent US10738080B2, “Inhibitors of beta integrin-G protein alpha subunit binding interactions” (priority 2010, dated 2020).
No end group written: not given here. *: point of attachment. Myristoyl = CCCCCCCCCCCCCC(=O)*

Molecular target: T1, Gα13 binding to β3 (Homo sapiens, UniProt P05106+Q14344)
T1 construct: Proteins from platelet lysates were immunoprecipitated with control IgG or antibody to Gα13; The integrin αIIbβ3 was co-immunoprecipitated by anti-Gα13 antibody, but not control IgG, from platelet lysates; endogenous in cells; host or cells: washed human platelets (lysates)
T1 sequence (Q14344 1-377): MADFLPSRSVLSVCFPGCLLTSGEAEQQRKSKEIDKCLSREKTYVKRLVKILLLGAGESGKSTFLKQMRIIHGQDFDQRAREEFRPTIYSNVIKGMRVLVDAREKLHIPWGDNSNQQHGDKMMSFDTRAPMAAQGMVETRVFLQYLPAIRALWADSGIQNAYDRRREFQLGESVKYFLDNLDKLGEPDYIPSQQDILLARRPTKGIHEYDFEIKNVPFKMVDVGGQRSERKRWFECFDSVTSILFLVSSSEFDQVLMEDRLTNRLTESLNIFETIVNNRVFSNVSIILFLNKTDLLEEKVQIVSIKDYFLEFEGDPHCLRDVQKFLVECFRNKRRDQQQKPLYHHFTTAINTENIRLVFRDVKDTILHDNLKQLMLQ
T1 sequence (P05106 27-788): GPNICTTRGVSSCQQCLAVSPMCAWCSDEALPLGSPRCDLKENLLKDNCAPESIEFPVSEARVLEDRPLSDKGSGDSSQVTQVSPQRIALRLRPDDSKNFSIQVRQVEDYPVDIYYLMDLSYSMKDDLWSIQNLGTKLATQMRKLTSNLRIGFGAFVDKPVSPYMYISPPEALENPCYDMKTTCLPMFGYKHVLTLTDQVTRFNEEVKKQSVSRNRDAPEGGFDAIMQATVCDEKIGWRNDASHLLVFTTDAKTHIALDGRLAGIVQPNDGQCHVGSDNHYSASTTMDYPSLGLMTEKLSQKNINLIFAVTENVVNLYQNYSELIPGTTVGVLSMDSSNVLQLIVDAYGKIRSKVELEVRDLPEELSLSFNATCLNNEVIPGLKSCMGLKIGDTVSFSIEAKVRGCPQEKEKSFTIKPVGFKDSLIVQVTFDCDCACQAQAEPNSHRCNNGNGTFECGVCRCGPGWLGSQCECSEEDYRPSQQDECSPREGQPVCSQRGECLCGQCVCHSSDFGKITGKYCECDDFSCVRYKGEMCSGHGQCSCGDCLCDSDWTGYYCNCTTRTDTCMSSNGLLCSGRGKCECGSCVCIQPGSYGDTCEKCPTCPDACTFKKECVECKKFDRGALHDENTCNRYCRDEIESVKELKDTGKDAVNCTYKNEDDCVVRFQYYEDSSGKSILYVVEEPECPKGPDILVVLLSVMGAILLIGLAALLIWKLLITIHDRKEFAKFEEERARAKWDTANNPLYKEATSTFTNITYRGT
Experiment: Co-immunoprecipitation of β3 with Gα13 from platelet lysates
Conditions: for co-immunoprecipitation between Gα13 and β3: platelets/platelet lysates, 500 μM peptide
Experimental: As previously described (S7), cell lysates were incubated with 2 μg/ml of D57 (antibody to integrin αIIbβ3), LJP3 (antibody against GPIb), or mouse IgG, and further incubated with protein G-conjugated Sepharose beads. Cell lysates were also incubated with rabbit anti-Gα13 IgG antibody (1.5 μg/ml) or an equal amount of rabbit IgG and further incubated with protein A-conjugated Sepharose beads. After 3-6 washes with lysis buffer, immunoprecipitates were analyzed by SDS-polyacrylamide gel electrophoresis and Western blots with antibodies against β3 (MAb15), GPIb (anti-IbαC (S8)) or Gα13. In some experiments, 1 μM GDP, 1 μM GTPγS or 30 μM AlF4^− were added to the reaction to assess the effect of Gα13 activation on integrin binding. In other experiments, 250 μM mSRI or scrambled control peptide was incubated with platelet lysates prior to immunoprecipitation. GST bead pull down analysis was previously described (S7). Purified Gα13 was incubated with glutathione beads-bound to GST, GST-β1CD or GST-β3 CD at 4° C. overnight. Bead-bound proteins were analyzed by immunoblotting. For GST-β3CD cDNA construction, integrin-β3 cytoplasmic domain (716-762) cDNA was generated by PCR and cloned into pGEX-4T2 vector using Bam HI and Xho I restriction sites. The forward primer is 5′-[…]-3′ (SEQ ID NO: 48); the reverse primer is 5′-[…]-3′ (SEQ ID NO: 49). For GST-I31CD cDNA construction, β1 cytoplasmic domain (752-798) cDNA was amplified by PCR and cloned into pGEX-4T1 vector using EcoRI and Xho I restriction sites. The primer sequences are: (1) forward: 5′-[…]-3′ (SEQ ID NO: 50); (2) reverse: […]-3′ (SEQ ID NO: 51). GST, GST-β1CD and GST-β3CD were purified from BL21 (DE3) E. coli using glutathione-conjugated beads.
Cell lysates were incubated with rabbit anti-Gα13 IgG (1.5 μg/ml), anti-integrin β3 rabbit serum (5 μl/ml) or an equal amount of rabbit IgG or pre-immune serum at 4° C. overnight, and subsequently with protein A-conjugated Sepharose beads for 1 hour. For the integrin β3 clustering experiment, human platelets (3×10^8) were stimulated with 0.025 U/ml α-thrombin for 2 minutes at room temperature (to avoid platelet aggregation) with or without 2 mM RGDS, then incubated with 5 μl anti-integrin β3 8053 rabbit serum at room temperature for 1 hour, and 5 μg goat anti-rabbit secondary antibody for another 1 hour. Platelets were then solubilized in modified RIPA Buffer. For the un-clustering control and pre-immune serum control, cells were solubilized in modified RIPA Buffer first, than incubated with 5 μl 8053 serum or pre-immune serum. After 3-6 washes with lysis buffer, immunoprecipitates were analyzed by SDS-polyacrylamide gel electrophoresis and Western blots using antibodies against β3, talin, or Gα13. In some experiments, 500 μM control or inhibitor peptides, mP5, mP7 and mP13 were incubated with platelet lysates prior to immunoprecipitation, or 2 mM RGDS was added into washed human platelets before stimulation by 0.025 U/ml α-thrombin. GST bead pull down analysis was previously described^8. Purified Gα13 or MBP-talin head were incubated with glutathione beads-bound to GST or GST-β3CD at 4° C. overnight. Bead-bound proteins were analyzed by immunoblotting.

Substance	co-immunoprecipitation between Gα13 and β3	Gα13 binding to β3 (co-immunoprecipitation of β3 with Gα13) (platelet lysates, 250 μM peptide)
Myristoyl-KFEEERARAKWDT [mP13]	inhibited	–
Myr-EEERA [mP5]	inhibited	–
Myristoyl-KFEEERA [mP7]	inhibited	–
Myristoyl-LLARRPTKGIHEY [mSRI]	–	inhibited
